Laboratory results: patent US20220257704A1, “COMBINATION OF CHEMOTHERAPY WITH RECOMBINANT S. ROLFSII LECTIN” (Unichem Laboratories Ltd, priority 2018, published 2022)
Read-outs that look alike come from different tables or passages of the source.

What was measured:
Assay in all cases: MTT cytotoxicity assay, 48 h, alone and in combination (IC50 and Combination Index)
Type in all cases: cell-based
MDA-MB-231 cell line = settings: Homo sapiens, read-out: IC50 of Paclitaxel
Protocol: The cell were kept in contact with the recombinant lectin of SEQ ID NO: 1 and the chemotherapy agent for 48 h and the cytotoxic effect (percentage cytotoxicity) was measured. The cytotoxic effect was determined by well-known colorimetric MTT assay (Mossman, T. 1983 Rapid colorimetric assay for cellular growth and survival: application to proliferation and cytotoxicity assays Journal of Immunological Methods, volume 65, pages 55-63) for assessing cell metabolic activity.
Based on percentage cytotoxicity data, IC50 values were determined using the software GraphPad Prism version 4.01.
(§1) Combination Index (CI) values were determined for each drug concentration combination. The CI values were calculated based on the IC50 values using the formula as given in below.
A study was performed to determine the effect of the concentration of the recombinant lectin represented by SEQ ID NO: 1 on the IC50 of Paclitaxel for cytotoxicity in MDA-MB-231 cells. Conversely the effect of the concentration of Paclitaxel on the IC50 of the recombinant lectin represented by SEQ ID NO: 1.
Similarly another study was performed for Carboplatin in combination with the recombinant lectin of SEQ ID NO: 1.
In a further study, MDA-MB-231 cells were treated with Paclitaxel (0.001 nM-10 nM) in combination with SEQ ID NO: 1(2.5 μg/mL-80 μg/mL) for 48 h. Similarly another set of cells were treated with Carboplatin (10 μM-1000 μM) in combination with SEQ ID NO: 1 (2.5 μg/mL-80 μg/mL).

PA-1 cell line = settings: for IC50: Homo sapiens, read-out: IC50 of Paclitaxel
Protocol: In a further study, PA-1 cells were treated with Cisplatin(0.01 μM-5 μM) in combination with SEQ ID NO: 1(1 μg/mL-20 μg/mL) for 48 h. Similarly another set of cells were treated with Paclitaxel (0.01 nM-5 nM) in combination with SEQ ID NO: 1 (1 μg/mL-20 μg/mL).

HT-29 cell line = settings: Homo sapiens
PANC-1 cell line = settings: Homo sapiens
Protocol: The cytotoxic effect on each combination was determined by MTT assay.
as §1

KB cell line = settings: for IC50: Homo sapiens, KB

CC(=O)O[C@H]1C(=O)[C@@]2(C)[C@H]([C@H](OC(=O)c3ccccc3)[C@]3(O)C[C@H](OC(=O)[C@H](O)[C@@H](NC(=O)c4ccccc4)c4ccccc4)C(C)=C1C3(C)C)[C@]1(OC(C)=O)CO[C@@H]1C[C@@H]2O [Paclitaxel, reference compound]
IC50 (MDA-MB-231 cell line; MDA-MB-231, SEQ ID NO: 1 at 0 μg/mL): 1.64 nM | IC50 (MDA-MB-231 cell line; MDA-MB-231, SEQ ID NO: 1 at 5 μg/mL): 9.31 nM | IC50 (MDA-MB-231 cell line; MDA-MB-231, SEQ ID NO: 1 at 10 μg/mL): 0.389 nM | IC50 (MDA-MB-231 cell line; MDA-MB-231, SEQ ID NO: 1 at 20 μg/mL): 0.123 nM | IC50 (MDA-MB-231 cell line; MDA-MB-231, SEQ ID NO: 1 at […]): 3.98 nM | IC50 (PA-1 cell line; PA-1, SEQ ID NO: 1 at 0 μg/mL): 4.04 nM | IC50 (PA-1 cell line; PA-1, SEQ ID NO: 1 at 1 μg/mL): 3.62 nM | IC50 (PA-1 cell line; PA-1, SEQ ID NO: 1 at 5 μg/mL): 0.222 nM | IC50 (PA-1 cell line; PA-1, SEQ ID NO: 1 at […]): 3.48 nM | Conc. of other therapeutic agents showing synergistic effect (PA-1 cell line; Paclitaxel with SEQ ID NO: 1, paired with SEQ ID NO: 1 conc.): 0.25 to 5 nM

CCc1c2c(nc3ccc(OC(=O)N4CCC(N5CCCCC5)CC4)cc13)-c1cc3c(c(=O)n1C2)COC(=O)[C@]3(O)CC [Irinotecan, reference compound]
IC50 (HT-29 cell line; HT-29, SEQ ID NO: 1 at 0 μg/mL, read-out: IC50 of Irinotecan): 16200 nM | IC50 (HT-29 cell line; HT-29, SEQ ID NO: 1 at 1 μg/mL, read-out: IC50 of Irinotecan): 49200 nM | IC50 (HT-29 cell line; HT-29, SEQ ID NO: 1 at 5 μg/mL, read-out: IC50 of Irinotecan): 2780 nM | IC50 (HT-29 cell line; HT-29, SEQ ID NO: 1 at 10 μg/mL, read-out: IC50 of Irinotecan): 5450 nM | IC50 (HT-29 cell line; HT-29, SEQ ID NO: 1 at 20 μg/mL, read-out: IC50 of Irinotecan): 1340 nM | IC50 (HT-29 cell line; HT-29, SEQ ID NO: 1 at 40 μg/mL, read-out: IC50 of Irinotecan): 278 nM | IC50 (HT-29 cell line; HT-29, SEQ ID NO: 1 at 80 μg/mL, read-out: IC50 of Irinotecan): 167 nM

O=c1[nH]cc(F)c(=O)[nH]1 [5-FU, 5-Fluorouracil, reference compound]
IC50 (PANC-1 cell line; PANC-1, read-out: IC50 of 5-FU, SEQ ID NO: 1 at 0 μg/mL): 87000 nM | IC50 (PANC-1 cell line; PANC-1, read-out: IC50 of 5-FU, SEQ ID NO: 1 at 5 μg/mL): 1410 nM | IC50 (PANC-1 cell line; PANC-1, read-out: IC50 of 5-FU, SEQ ID NO: 1 at 10 μg/mL): 1260 nM | IC50 (PANC-1 cell line; PANC-1, read-out: IC50 of 5-FU, SEQ ID NO: 1 at 20 μg/mL): 869 nM | IC50 (PANC-1 cell line; PANC-1, read-out: IC50 of 5-FU, SEQ ID NO: 1 at 40 μg/mL): 8450 nM | IC50 (PANC-1 cell line; PANC-1, read-out: IC50 of 5-FU, SEQ ID NO: 1 at 80 μg/mL): 725 nM | IC50 (PANC-1 cell line; PANC-1, read-out: IC50 of 5-FU, SEQ ID NO: 1 at […]): 297000 nM | Conc. of other therapeutic agents showing synergistic effect (KB cell line; 5-FU with SEQ ID NO: 1, paired with SEQ ID NO: 1 conc.): 0.01 to 5 µM | IC50 (KB cell line; read-out: IC50 of 5-FU, SEQ ID NO: 1 at 0 μg/mL): 15 nM | IC50 (KB cell line; read-out: IC50 of 5-FU, SEQ ID NO: 1 at 5 μg/mL): 0.1 nM | IC50 (KB cell line; read-out: IC50 of 5-FU, SEQ ID NO: 1 at 10 μg/mL): 0.00531 nM | IC50 (KB cell line; read-out: IC50 of 5-FU, SEQ ID NO: 1 at 20 μg/mL): 0.0134 nM | IC50 (KB cell line; read-out: IC50 of 5-FU, SEQ ID NO: 1 at 30 μg/mL): 0.00119 nM | IC50 (HT-29 cell line; HT-29, read-out: IC50 of 5-FU, SEQ ID NO: 1 at 0 μg/mL): 137000 nM | IC50 (HT-29 cell line; HT-29, read-out: IC50 of 5-FU, SEQ ID NO: 1 at 1 μg/mL): 173000 nM | IC50 (HT-29 cell line; HT-29, read-out: IC50 of 5-FU, SEQ ID NO: 1 at 5 μg/mL): 25900 nM | IC50 (HT-29 cell line; HT-29, read-out: IC50 of 5-FU, SEQ ID NO: 1 at 10 μg/mL): 4510 nM | IC50 (HT-29 cell line; HT-29, read-out: IC50 of 5-FU, SEQ ID NO: 1 at 20 μg/mL): 282 nM | IC50 (HT-29 cell line; HT-29, read-out: IC50 of 5-FU, SEQ ID NO: 1 at 40 μg/mL): 1240 nM | IC50 (HT-29 cell line; HT-29, read-out: IC50 of 5-FU, SEQ ID NO: 1 at 80 μg/mL): 4880 nM
